Assay results as given in patent publication US20230109717A1 (GAIA BioMedicine Inc., priority 2020, published 2023).

Tests used:
highly active NK cells = assay: Viability of freeze-thawed highly active NK cells (7-AAD staining, flow cytometry, FlowJo); details: collect. method 2
Procedure: The highly activated NK cells (1×10^5 cells/well) thawed under each condition were centrifuged on a 96-well plate (IWAKI, 4870-800SP), the supernatant was removed, and then a 7-amino-actinomycin D (7-AAD) solution diluted with PBS (Beckman Coulter, A 07704) was added to the cells to suspend them, and the suspension was incubated at room temperature (room temperature means 15 to 25° C., the same shall apply in the following experiments) for 20 minutes. The stained cells were measured by using a flow cytometer (BD LSR Fortessa, BD Biosciences).
The NK cells frozen for 48 hours or longer were thawed in a water bath at 37° C., and 1×10^5 cells were dispensed on a 96-well plate (IWAKI) immediately after the thawing. […] The cells dispensed immediately after thawing were centrifuged immediately after they were dispensed, and the cells of the other four groups were centrifuged after incubation of 3 hours, measurement was performed by the method for staining with 7-AAD described above, and the results were analyzed with the FlowJo software (FLOWJO, LLC) to calculate viable cell rates.
The NK cells frozen for 48 hours or longer were thawed at 37° C. in a water bath, and then 1×10^5 of the cells were dispensed on a 96-well plate immediately after the thawing. […] The cells dispensed immediately after thawing were centrifuged immediately after they were dispensed, and the cells of the other four groups were centrifuged after incubation of 3 hours, measurement was performed by the method for staining with 7-AAD described above, and the results were analyzed with the FlowJo software (FLOWJO, LLC) to calculate viable cell rates.
Then, measurement was performed by the method for staining with 7-AAD described above, and the results were analyzed with the FlowJo software. […] Then, measurement was performed by the method for staining with 7-AAD described above, and the results were analyzed with the FlowJo software. (8-3) The experiment was performed in the same manner as in (8-1), but (1) PBS, (2) Plasma-Lyte A, (3) Plasma-Lyte A containing 27.7 mEq/L of lactic acid (Nacalai Tesque, 20006-62), (4) Plasma-Lyte A containing 48.84 mg/L of MgSO4.7H2O (Nacalai Tesque, 21002-85), (5) Lactoringer, (6) Veen-F (Fuso Pharma), (7) Solita-T1 (AY Pharmaceuticals), (8) Solita-T3 (AY Pharmaceuticals), (9) 5% glucose injection solution (Terumo), and (10) RPMI medium were used as the solvents for dilution of thawed cells, and the cells were incubated at 37° C. for 3 hours. In the case of (3), lactic acid was added at the same concentration as the lactate concentration in Lactoringer, and neutrality of the solution was confirmed with litmus test paper. In the case of (4), MgSO4 was added at the same concentration as the MgSO4 concentration in HBSS. Measurement was then performed by the method for staining with 7-AAD described above, and the results were analyzed with the FlowJo software. (8-4) The experiment was performed in the same manner as in (8-2), but the cells were treated by using (1) PBS, (2) Plasma-Lyte A, (3) saline (OTSUKA NORMAL SALINE, Otsuka Pharmaceutical), (4) Bicanate (Otsuka Pharmaceutical), and (5) Solacet F (Terumo) as the solvents for dilution of thawed cells. Measurement was then performed by the method for staining with 7-AAD described above, and the results were analyzed with the FlowJo software. […] Immediately after completely thawed, the cells were diluted 10-fold in (1) Plasma-Lyte A, (2) saline, (3) RPMI 1640 medium, (4) Lactoringer, (5) 0.423 mM CaCl2 prepared in Plasma-Lyte A, and (6) 1.36 mM CaCl2, and left to stand at 37° C. for 3 hours. The CaCl2 concentration of (5) was the same as that in the RPMI 1640 medium, and the CaCl2 concentration of (6) was the same as that in Lactoringer. Measurement was then performed by the method for staining with 7-AAD described above, and the results were analyzed with the FlowJo software.

SKOV3 sphere = assay: Evaluation of thawed highly active NK cells in a solid tumor model (3D killing assay); assay type: cell-based, human; details: added before freezing at 800 μM (preferable between 2,400 μM and 267 μM)
Procedure: To one of SKOV3 sphere inoculated beforehand in each well of a […] plate, 50 μL of the prepared NK cells were added, and allowed to react for 4 days at 37° C. under 5% CO2. Then, the cells were detached with Accutase, collected, and cultured in the RPMI medium on a 24-well plate for expansion. After 17 days of the expansion culture at 37° C. under 5% CO2, the cells were fixed with 4% PFA, stained with DAPI, and observed under a fluorescence microscope (BZ-9000, KEYENCE), and BZ-II Analysis Application was used to quantify the area of SKOV3 that was not injured by the NK cells.
The SKOV3 cells (human ovarian cancer cell line) were prepared at a density of 3×10^4 cells/mL in 10% FBS/RPMI 1640, and inoculated onto a 96-well plate in an amount of 3×10^3 cells/100 μL per well. Spheres were prepared by incubating the cells at 37° C. for 3 days under 5% CO2.

C[C@H](CCC(=O)NCCS(=O)(=O)O)[C@H]1CC[C@H]2[C@@H]3[C@@H](O)C[C@@H]4C[C@H](O)CC[C@]4(C)[C@H]3CC[C@]12C [TUDCA, tauroursodeoxycholic acid dihydrate]
Viability (highly active NK cells; Exmp. 6, pretreatment KBM + 10 μM TUDCA 2 h, thawing PlasmaLyte R.T. 1 h, then KBM 2 h): A (“A” means 70% or higher) | Viability (highly active NK cells; Exmp. 6, pretreatment KBM + 10 μM TUDCA 2 h, thawing PlasmaLyte R.T. 3 h): A (“A” means 70% or higher) | Viability (highly active NK cells; Exmp. 6, pretreatment KBM + 30 μM TUDCA 2 h, thawing PlasmaLyte R.T. 1 h, then KBM 2 h): A (“A” means 70% or higher) | Viability (highly active NK cells; Exmp. 6, pretreatment KBM + 30 μM TUDCA 2 h, thawing PlasmaLyte R.T. 3 h): A (“A” means 70% or higher) | Viability (highly active NK cells; Exmp. 6, pretreatment KBM + 90 μM TUDCA 2 h, thawing PlasmaLyte R.T. 1 h, then KBM 2 h): A (“A” means 70% or higher) | Viability (highly active NK cells; Exmp. 6, pretreatment KBM + 90 μM TUDCA 2 h, thawing PlasmaLyte R.T. 3 h): A (“A” means 70% or higher) | Viability (highly active NK cells; Exmp. 6, pretreatment KBM + 270 μM TUDCA 2 h, thawing PlasmaLyte R.T. 1 h, then KBM 2 h): A (“A” means 70% or higher) | Viability (highly active NK cells; Exmp. 6, pretreatment KBM + 270 μM TUDCA 2 h, thawing PlasmaLyte R.T. 3 h): A (“A” means 70% or higher) | Viability (highly active NK cells; Exmp. 6, pretreatment KBM + 810 μM TUDCA 2 h, thawing PlasmaLyte R.T. 1 h, then KBM 2 h): A (“A” means 70% or higher) | Viability (highly active NK cells; Exmp. 6, pretreatment KBM + 810 μM TUDCA 2 h, thawing PlasmaLyte R.T. 3 h): A (“A” means 70% or higher) | Viability (highly active NK cells; Exmp. 7, pretreatment KBM + 266 μM TUDCA 2 h, thawing PlasmaLyte + IL-2, R.T. 1 h): A (“A” means 70% or higher) | Viability (highly active NK cells; Exmp. 7, pretreatment KBM + 266 μM TUDCA 2 h, thawing PlasmaLyte + IL-2, R.T. 1 h, then KBM 2 h): A (“A” means 70% or higher) | Viability (highly active NK cells; Exmp. 7, pretreatment KBM + 266 μM TUDCA 2 h, thawing PlasmaLyte + IL-2, R.T. 3 h): A (“A” means 70% or higher) | Viability (highly active NK cells; Exmp. 7, pretreatment KBM + 266 μM TUDCA 2 h, thawing PlasmaLyte R.T. 1 h): A (“A” means 70% or higher) | Viability (highly active NK cells; Exmp. 7, pretreatment KBM + 266 μM TUDCA 2 h, thawing PlasmaLyte R.T. 1 h, then KBM 2 h): A (“A” means 70% or higher) | Viability (highly active NK cells; Exmp. 7, pretreatment KBM + 266 μM TUDCA 2 h, thawing PlasmaLyte R.T. 3 h): A (“A” means 70% or higher) | Viability (highly active NK cells; Exmp. 7, pretreatment KBM + 800 μM TUDCA 2 h, thawing PlasmaLyte + IL-2, R.T. 1 h): A (“A” means 70% or higher) | Viability (highly active NK cells; Exmp. 7, pretreatment KBM + 800 μM TUDCA 2 h, thawing PlasmaLyte + IL-2, R.T. 1 h, then KBM 2 h): A (“A” means 70% or higher) | Viability (highly active NK cells; Exmp. 7, pretreatment KBM + 800 μM TUDCA 2 h, thawing PlasmaLyte + IL-2, R.T. 3 h): A (“A” means 70% or higher) | Viability (highly active NK cells; Exmp. 7, pretreatment KBM + 800 μM TUDCA 2 h, thawing PlasmaLyte R.T. 1 h): A (“A” means 70% or higher) | Viability (highly active NK cells; Exmp. 7, pretreatment KBM + 800 μM TUDCA 2 h, thawing PlasmaLyte R.T. 1 h, then KBM 2 h): A (“A” means 70% or higher) | Viability (highly active NK cells; Exmp. 7, pretreatment KBM + 800 μM TUDCA 2 h, thawing PlasmaLyte R.T. 3 h): A (“A” means 70% or higher) | Viability (highly active NK cells; Exmp. 7, pretreatment KBM + 2400 μM TUDCA 2 h, thawing PlasmaLyte + IL-2, R.T. 1 h): A (“A” means 70% or higher) | Viability (highly active NK cells; Exmp. 7, pretreatment KBM + 2400 μM TUDCA 2 h, thawing PlasmaLyte + IL-2, R.T. 1 h, then KBM 2 h): A (“A” means 70% or higher) | Viability (highly active NK cells; Exmp. 7, pretreatment KBM + 2400 μM TUDCA 2 h, thawing PlasmaLyte + IL-2, R.T. 3 h): A (“A” means 70% or higher) | Viability (highly active NK cells; Exmp. 7, pretreatment KBM + 2400 μM TUDCA 2 h, thawing PlasmaLyte R.T. 1 h): A (“A” means 70% or higher) | Viability (highly active NK cells; Exmp. 7, pretreatment KBM + 2400 μM TUDCA 2 h, thawing PlasmaLyte R.T. 1 h, then KBM 2 h): A (“A” means 70% or higher) | Viability (highly active NK cells; Exmp. 7, pretreatment KBM + 2400 μM TUDCA 2 h, thawing PlasmaLyte R.T. 3 h): A (“A” means 70% or higher) | Killing activity against the solid tumor model (SKOV3 sphere): higher killing activity
